18 molecules from patent US9533961B2, “Molecules having certain pesticidal utilities, and intermediates, compositions, and processes related thereto” (priority 2014, dated 2017) can be followed below.

One may read the mortality as the percentage killed.

Assay type in all cases: in vivo
The subject of data set [1] is Yellow Fever Mosquito (Aedes aegypti, AEDSAE) ("YFM"). Description: Bioassay on Yellow Fever Mosquito (YFM), 96-well plate larval assay. The settings on record: about 1 day-old larvae, from 4000 ppm master plate, scored on mortality after 3 days. On the procedure:
Certain molecules disclosed in this document were tested against YFM using procedures described in the following paragraph. In the reporting of the results, the “YFM Rating Table” was used (See Table Section).
Master plates containing 400 μg of a molecule dissolved in 100 μL of dimethyl sulfoxide (DMSO) (equivalent to a 4000 ppm solution) are used. A master plate of assembled molecules contains 15 μL per well. To this plate, 135 μL of a 90:10 water:acetone mixture is added to each well. A robot (Biomek® NXP Laboratory Automation Workstation) is programmed to dispense 15 μL aspirations from the master plate into an empty 96-well shallow plate (“daughter” plate). There are 6 reps (“daughter” plates) created per master. The created daughter plates are then immediately infested with YFM larvae.
The day before plates are to be treated, mosquito eggs are placed in Millipore water containing liver powder to begin hatching (4 g. into 400 mL). After the daughter plates are created using the robot, they are infested with 220 μL of the liver powder/larval mosquito mixture (about 1 day-old larvae). After plates are infested with mosquito larvae, a non-evaporative lid is used to cover the plate to reduce drying. Plates are held at room temperature for 3 days prior to grading. After 3 days, each well is observed and scored based on mortality.

Data set [2] has as its system Cabbage Looper (Trichoplusia ni, TRIPNI) ("CL"). Put plainly: Bioassay on Cabbage Looper (CL), 128-well diet tray assay. The settings on record: 168 h, read-out: CL % Control (or Mortality) rating. On the procedure: (§1) Certain molecules disclosed in this document were tested against BAW and CEW using procedures described in the following examples. In the reporting of the results, the “BAW & CL Rating Table” was used (See Table Section).
Bioassays on CL were conducted using a 128-well diet tray assay. one to five second instar CL larvae were placed in each well (3 mL) of the diet tray that had been previously filled with 1 mL of artificial diet to which 50 μg/cm^2 of the test compound (dissolved in 50 μL of 90:10 acetone-water mixture) had been applied (to each of eight wells) and then allowed to dry. Trays were covered with a clear self-adhesive cover and held at 25° C., 14:10 light-dark for five to seven days. Percent mortality was recorded for the larvae in each well; activity in the eight wells was then averaged. The results are indicated in the table entitled “Table ABC: Biological Results” (See Table Section).

Data set [3] concerns Beet Armyworm (Spodoptera exigua, LAPHEG) ("BAW"). Put plainly: Bioassay on Beet Armyworm (BAW), 128-well diet tray assay. The settings on record: 168 h, 50 μg/cm^2 on artificial diet, second instar larvae, five to seven days, 25° C., average of eight wells, read-out: BAW % Control (or Mortality) rating. Here is the method:
as §1
Bioassays on BAW were conducted using a 128-well diet tray assay. one to five second instar BAW larvae were placed in each well (3 mL) of the diet tray that had been previously filled with 1 mL of artificial diet to which 50 μg/cm^2 of the test compound (dissolved in 50 μL of 90:10 acetone-water mixture) had been applied (to each of eight wells) and then allowed to dry. Trays were covered with a clear self-adhesive cover and held at 25° C., 14:10 light-dark for five to seven days. Percent mortality was recorded for the larvae in each well; activity in the eight wells was then averaged. The results are indicated in the table entitled “Table ABC: Biological Results” (See Table Section).

Each structure is given as a SMILES string.

Turning to `O=C(Nc1ccc(-c2ncn(-c3ccc(OC(F)(F)F)cc3)n2)cc1)c1ccccc1Cc1ccccc1` [F3, 2-benzyl-N-(4-(1-(4-(trifluoromethoxy)phenyl)-1H-1,2,4-triazol-3-yl)phenyl)benzamide], the “YFM % Control (or Mortality) rating” value in data set [1] is on record as “D (No activity noticed in this bioassay)”. For the same molecule, the mortality at 50 µg/cm2 in data set [2] and in data set [3] was 50 to 100% each time.
Consider `O=C(Nc1ccc(-c2ncn(-c3ccc(OC(F)(F)F)cc3)n2)cc1)c1ccccc1Oc1ccccc1` [F4, 2-Phenoxy-N-(4-(1-(4-(trifluoromethoxy)phenyl)-1H-1,2,4-triazol-3-yl)phenyl)benzamide], for which the “YFM % Control (or Mortality) rating” value in data set [1] was “D (No activity noticed in this bioassay)”. For the same molecule, the mortality at 50 µg/cm2 in data set [2] and in data set [3] was 50 to 100% each time.
For the molecule `O=C(Nc1ccc(-c2ncn(-c3ccc(OC(F)(F)F)cc3)n2)cc1)c1cccc(Oc2ccccc2)c1` [F5, 3-Phenoxy-N-(4-(1-(4-(trifluoromethoxy)phenyl)-1H-1,2,4-triazol-3-yl)phenyl)benzamide], in data set [1], the “YFM % Control (or Mortality) rating” value is “D (No activity noticed in this bioassay)”. The values for the mortality at 50 µg/cm2 in data set [2] and in data set [3] were 50 to 100% and 0%, respectively.
The like results for `O=C(Nc1ccc(-c2ncn(-c3ccc(OC(F)(F)F)cc3)n2)cc1)c1ccc(Oc2ccccc2)cc1` [F6, 4-Phenoxy-N-(4-(1-(4-(trifluoromethoxy)phenyl)-1H-1,2,4-triazol-3-yl)phenyl)benzamide] were, in that order, “D (No activity noticed in this bioassay)”, 50 to 100% and 50 to 100%.
In the same order, the values of `O=C(Nc1ccc(-c2ncn(-c3ccc(OC(F)(F)C(F)(F)F)cc3)n2)cc1)c1ccccc1Oc1ccccc1` [F8, N-(4-(1-(4-(Perfluoroethoxy)phenyl)-1H-1,2,4-triazol-3-yl)phenyl)-2-phenoxybenzamide] are “D (No activity noticed in this bioassay)”, 0% and 0%.
For `O=C(Nc1ccc(-c2ncn(-c3ccc(OC(F)(F)C(F)(F)F)cc3)n2)cc1)c1cccc(Oc2ccccc2)c1` [F9, N-(4-(1-(4-(perfluoroethoxy)phenyl)-1H-1,2,4-triazol-3-yl)phenyl)-3-phenoxybenzamide], the “YFM % Control (or Mortality) rating” value in data set [1] is on record as “D (No activity noticed in this bioassay)”. The mortality at 50 µg/cm2 in data set [2] and in data set [3] was 0% throughout.
Take `O=C(Nc1ccc(-c2ncn(-c3ccc(OC(F)(F)C(F)(F)F)cc3)n2)cc1)c1ccc(Oc2ccccc2)cc1` [F10, N-(4-(1-(4-(perfluoroethoxy)phenyl)-1H-1,2,4-triazol-3-yl)phenyl)-4-phenoxybenzamide]: in data set [1], the “YFM % Control (or Mortality) rating” value was “D (No activity noticed in this bioassay)”. Also, the mortality at 50 µg/cm2 in data set [2] and in data set [3] was 0% each time.
With `COc1ccccc1C(=O)Nc1ccc(-c2ncn(-c3ccc(OC(F)(F)F)cc3)n2)cc1` [F11, 2-Methoxy-N-(4-(1-(4-(trifluoromethoxy)phenyl)-1H-1,2,4-triazol-3-yl)phenyl)benzamide], in data set [1], the “YFM % Control (or Mortality) rating” value was “D (No activity noticed in this bioassay)”. For the same molecule, the mortality at 50 µg/cm2 in data set [2] was 0%; in data set [3], 50 to 100%.
In the same order, the values of `COc1ccccc1C(=O)Nc1ccc(-c2ncn(-c3ccc(OC(F)(F)C(F)(F)F)cc3)n2)cc1` [F12, 2-Methoxy-N-(4-(1-(4-(perfluoroethoxy)phenyl)-1H-1,2,4-triazol-3-yl)phenyl)benzamide] are “D (No activity noticed in this bioassay)”, 50 to 100% and 0%.
The like results for `COc1cccc(C(=O)Nc2ccc(-c3ncn(-c4ccc(OC(F)(F)F)cc4)n3)cc2)c1` [F13, 3-Methoxy-N-(4-(1-(4-(trifluoromethoxy)phenyl)-1H-1,2,4-triazol-3-yl)phenyl)benzamide] were, in that order, “B (More than 0 - Less than 80)”, 50 to 100% and 50 to 100%.
The like results for `CC(C)c1cccc(C(=O)Nc2ccc(-c3ncn(-c4ccc(OC(F)(F)F)cc4)n3)cc2)c1` [F15, 3-Isopropyl-N-(4-(1-(4-(trifluoromethoxy)phenyl)-1H-1,2,4-triazol-3-yl)phenyl)benzamide] were, in that order, “D (No activity noticed in this bioassay)”, 50 to 100% and 0%.
For `CC(C)c1cccc(C(=O)Nc2ccc(-c3ncn(-c4ccc(OC(F)(F)C(F)(F)F)cc4)n3)cc2)c1` [F16, 3-Isopropyl-N-(4-(1-(4-(perfluoroethoxy)phenyl)-1H-1,2,4-triazol-3-yl)phenyl)benzamide], the “YFM % Control (or Mortality) rating” value in data set [1] is listed as “D (No activity noticed in this bioassay)”. Also, the values for the mortality at 50 µg/cm2 in data set [2] and in data set [3] were 50 to 100% and 0%, respectively.
In the same order, the values of `CCOc1ccccc1Oc1ccccc1C(=O)Nc1ccc(-c2ncn(-c3ccc(OC(F)(F)F)cc3)n2)cc1` [F17, 2-(2-Ethoxyphenoxy)-N-(4-(1-(4-(trifluoromethoxy)phenyl)-1H-1,2,4-triazol-3-yl)phenyl)benzamide] are “D (No activity noticed in this bioassay)”, 0% and 0 to 50%.
In the same order, the values of `CCOc1ccccc1Oc1ccccc1C(=O)Nc1ccc(-c2ncn(-c3ccc(OC(F)(F)C(F)(F)F)cc3)n2)cc1` [F18, 2-(2-Ethoxyphenoxy)-N-(4-(1-(4-(perfluoroethoxy)phenyl)-1H-1,2,4-triazol-3-yl)phenyl)benzamide] are “D (No activity noticed in this bioassay)”, 0% and 0%.
In the same order, the values of `CC(C)COc1cccc(C(=O)Nc2ccc(-c3ncn(-c4ccc(OC(F)(F)F)cc4)n3)cc2)c1` [F19, 3-Isobutoxy-N-(4-(1-(4-(trifluoromethoxy)phenyl)-1H-1,2,4-triazol-3-yl)phenyl)benzamide] are “D (No activity noticed in this bioassay)”, 50 to 100% and 0%.
For `O=C(Nc1ccc(-c2ncn(-c3ccc(OC(F)(F)F)cc3)n2)cc1)c1cccc(COCC(F)(F)C(F)F)c1` [F20, 3-((2,2,3,3-Tetrafluoropropoxy)methyl)-N-(4-(1-(4-(trifluoromethoxy)phenyl)-1H-1,2,4-triazol-3-yl)phenyl)benzamide], the “YFM % Control (or Mortality) rating” value in data set [1] is reported as “B (More than 0 - Less than 80)”. In addition, the mortality at 50 µg/cm2 in data set [2] and in data set [3] was 0% each time.
On to `O=C(Nc1ccc(-c2ncn(-c3ccc(OC(F)(F)F)cc3)n2)cc1)c1cccc2c1OC(F)(F)O2` [F21, 2,2-Difluoro-N-(4-(1-(4-(trifluoromethoxy)phenyl)-1H-1,2,4-triazol-3-yl)phenyl)benzo[d][1,3]dioxole-4-carboxamide], for which the mortality at 50 µg/cm2 in data set [2] and in data set [3] was 50 to 100% each time.
Regarding `O=C(Nc1ccc(-c2ncn(-c3ccc(OC(F)(F)F)cc3)n2)cc1)c1ccc2c(c1)OC(F)(F)O2` [F22, 2,2-Difluoro-N-(4-(1-(4-(trifluoromethoxy)phenyl)-1H-1,2,4-triazol-3-yl)phenyl)benzo[d][1,3]dioxole-5-carboxamide], the mortality at 50 µg/cm2 in data set [2] and in data set [3] was 0% in each case.
